Experimental data: ChEMBL document CHEMBL3734661, “The chemistry and pharmacology of privileged pyrroloquinazolines” (Medchemcomm, 2015)
Where a chain is given by its changes, count along the chain named. Converted amounts (≈) assume the structure as drawn. Blank lines part the entries; values can stand above or below the compound they belong to.

Experiments:
[1] = Cytotoxic activity against human HL60 cells; type: functional, cell-based; details: HL-60
[2] = Cmax in Beagle dog at 5 mg/kg, po after 1.8 hrs; type: ADME, organism-based, Canis lupus familiaris; parameters: dose 5 mg/kg, route oral; details: in vivo
[3] = tested on: Candida albicans; experiment: Antifungal activity against Candida albicans after 24 hrs by microtiter method; type: functional
[4] = Tmax in Beagle dog at 5 mg/kg, po; type: ADME, organism-based, Canis lupus familiaris; details: in vivo
[5] = Cytotoxicity against human HCT8 cells assessed as growth inhibition by MTT assay; type: functional; details: HCT-8
[6] = Half life in Beagle dog at 2.5 mg/kg, iv; type: ADME, organism-based, Canis lupus familiaris; details: in vivo
[7] = Oral bioavailability in Beagle dog at 5 mg/kg; type: ADME, organism-based, Canis lupus familiaris; details: in vivo
[8] = molecular target: T1, Dihydrofolate reductase (Homo sapiens, UniProt P00374); experiment: Competitive inhibition of human recombinant DHFR preincubated for 2 mins followed by substrate addition in presence of dihydrofolate
T1 sequence (P00374 whole entry): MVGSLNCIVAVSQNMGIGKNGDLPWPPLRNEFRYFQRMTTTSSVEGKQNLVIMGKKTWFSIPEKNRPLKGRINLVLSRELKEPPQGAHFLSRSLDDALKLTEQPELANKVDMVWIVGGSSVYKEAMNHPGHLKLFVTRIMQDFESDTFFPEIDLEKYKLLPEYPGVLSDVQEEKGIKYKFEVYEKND

[9] = Half life in Beagle dog at 5 mg/kg, po; type: ADME, organism-based, Canis lupus familiaris; details: in vivo
[10] = Volume of distribution in Beagle dog at 2.5 mg/kg, iv; type: ADME, organism-based, Canis lupus familiaris; details: in vivo
[11] = tested on: Candida; experiment: Antifungal activity against Candida clinical isolates after 24 hrs by microtiter method; type: functional
[12] = tested on: Human alphaherpesvirus 1; experiment: Antiviral activity against HSV1 after 1.5 hrs by microtiter plate reader analysis; details: Human alphaherpesvirus 1, 1.5 h
[13] = molecular target: T2, Dihydrofolate reductase (Rattus norvegicus, UniProt Q920D2); experiment: Inhibition of rat DHFR extracted from liver using dihydrofolate as substrate preincubated for 5 mins followed by substrate addition by spectrofluorometric analysis
T2 sequence (Q920D2 whole entry): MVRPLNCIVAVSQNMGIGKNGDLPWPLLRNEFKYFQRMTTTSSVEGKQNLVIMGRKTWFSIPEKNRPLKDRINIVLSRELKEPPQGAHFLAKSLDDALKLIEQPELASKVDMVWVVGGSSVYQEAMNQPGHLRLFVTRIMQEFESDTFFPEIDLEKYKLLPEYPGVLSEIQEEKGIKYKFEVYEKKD

[14] = Inhibition of DHFR in Crithidia oncopelti using dihydrofolate as substrate preincubated for 5 mins followed by substrate addition by spectrofluorometric analysis
[15] = tested on: L1210; experiment: Cytotoxicity against mouse L1210 cells assessed as growth inhibition after 48 hrs by MTT assay; type: functional, cell-based; details: L1210, 48 h
[16] = molecular target: T3, Dihydrofolate reductase (Mus musculus, UniProt P00375); experiment: Inhibition of DHFR in mouse L1210 cells using dihydrofolate as substrate preincubated for 5 mins followed by substrate addition by spectrofluorometric analysis; type: cell-based
T3 sequence (P00375 whole entry): T2 sequence (Q920D2 whole entry) with L27P, Q85R, K99R, V115I, E155G, I170V

[17] = molecular target: Dihydrofolate reductase (Lactobacillus casei, UniProt P00381); experiment: Inhibition of DHFR in Lactobacillus casei using dihydrofolate as substrate preincubated for 5 mins followed by substrate addition by spectrofluorometric analysis; parameters: species or system Lacticaseibacillus casei
[18] = tested on: Plasmodium falciparum; experiment: Antimalarial activity against Plasmodium falciparum W-2 assessed as [3H]hypoxantine incorporation preincubated for 48 hrs followed by [3H]hypoxantine addition measured after 18 hrs by scintillation counting analysis; type: functional, organism-based
[19] = Therapeutic index, ratio of MTD for Sprague-Dawley rat to MCD for Plasmodium berghei infected in Sprague-Dawley rat; details: read-out: TI
[20] = tested on: Plasmodium falciparum; experiment: Antimalarial activity against Plasmodium falciparum RCS assessed as [3H]hypoxantine incorporation preincubated for 48 hrs followed by [3H]hypoxantine addition measured after 18 hrs by scintillation counting analysis; type: functional, organism-based
[21] = tested on: Plasmodium falciparum; experiment: Antimalarial activity against Plasmodium falciparum TM91C235 assessed as [3H]hypoxantine incorporation preincubated for 48 hrs followed by [3H]hypoxantine addition measured after 18 hrs by scintillation counting analysis; type: functional, organism-based
[22] = tested on: Plasmodium falciparum; experiment: Antimalarial activity against Plasmodium falciparum D6 assessed as [3H]hypoxantine incorporation preincubated for 48 hrs followed by [3H]hypoxantine addition measured after 18 hrs by scintillation counting analysis; type: functional, organism-based

SMILES: CCn1c2ccccc2c2c3c(=O)[nH]c(NCCN(C)C)nc3ccc21
IC50 [1]: 17000 nM

Cmax [2]: 170 ng/mL
MIC [3]: 0.025 µg/mL (≈ 0.0882 µM)
Tmax [4]: 1.8 h
half-life [6]: 2.8 h
bioavailability [7]: 49%
Ki [8]: 0.0003 nM
half-life [9]: 4 h
Vd [10]: 9.3 L/g
SMILES: CCC(CC)n1c(C)cc2c3c(N)nc(N)nc3ccc21
GI50 [5]: 0.74 nM

MIC [3]: 1.39 µg/mL (≈ 5.49 µM)
MIC [11]: 1.39 µg/mL (≈ 5.49 µM)
SMILES: Nc1nc(N)c2c(ccc3c2ccn3CC2CC2)n1

SMILES: Cc1cc2c(ccc3nc(N)nc(N)c32)[nH]1
IC50 [12]: 15000 nM

IC50 [13]: 2.1 nM
IC50 [14]: 0.7 nM
IC50 [16]: 4 nM
IC50 [17]: 6.4 nM
SMILES: N#Cc1ccc(Cn2ccc3c4c(N)nc(N)nc4ccc32)cc1
IC50 [15]: 40 nM

MIC [3]: 0.64 µg/mL (≈ 2.21 µM)
MIC [11]: 0.64 µg/mL (≈ 2.21 µM)
SMILES: Nc1nc(N)c2c(ccc3c2ccn3Cc2ccccc2)n1

SMILES: Nc1nc(N)c2c(ccc3[nH]ccc32)n1
Ki [8]: 1 nM

SMILES: CC(=O)N(C(C)=O)c1nc(N(C(C)=O)C(C)=O)c2c(ccc3c2ccn3Cc2ccccc2C(F)(F)F)n1
IC50 [18]: 0.14 nM
selectivity ratio [19]: 80
IC50 [20]: 0.046 nM
IC50 [21]: 0.16 nM
IC50 [22]: 0.046 nM
